Results published in PubChem BioAssay (NCI).
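Step 1: Grow cells in 96-well plates. Step 2: Expose to compound for 48 hours at 5 concentrations. Step 3: Interpolate endpoints linearly; if unreached, use highest concentration. The concentration for 50% growth inhibition is given as GI50. TGI: total growth inhibition.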

What was measured:
Test in all cases: inhibition of tumour cell growth, NCI panel, 48 h
[1] = tested on: 786-0 renal
[2] = tested on: A498 renal
[3] = tested on: A549 NSCLC
[4] = tested on: ACHN renal
[5] = tested on: BT-549 breast
[6] = tested on: CAKI-1 renal
[7] = tested on: CCRF-CEM leukemia
[8] = tested on: COLO 205 colon
[9] = tested on: DU-145 prostate
[10] = tested on: EKVX NSCLC
[11] = tested on: HCC-2998 colon
[12] = tested on: HCT-116 colon
[13] = tested on: HCT-15 colon
[14] = tested on: HL-60(TB) leukemia
[15] = tested on: HOP-62 NSCLC
[16] = tested on: HOP-92 NSCLC
[17] = tested on: HS 578T breast
[18] = tested on: HT29 colon
[19] = tested on: IGROV1 ovarian
[20] = tested on: K-562 leukemia
[21] = tested on: KM12 colon
[22] = tested on: LOX IMVI melanoma
[23] = tested on: M14 melanoma
[24] = tested on: MALME-3M melanoma
[25] = tested on: MCF7 breast
[26] = tested on: MDA-MB-231 breast
[27] = tested on: MDA-MB-435
[28] = tested on: MOLT-4 leukemia
[29] = tested on: NCI-H226 lung
[30] = tested on: NCI-H23 lung
[31] = tested on: NCI-H460 lung
[32] = tested on: NCI-H522 lung
[33] = tested on: NCI/ADR-RES ovarian
[34] = tested on: OVCAR-3 ovarian
[35] = tested on: OVCAR-4 ovarian
[36] = tested on: OVCAR-5 ovarian
[37] = tested on: OVCAR-8 ovarian
[38] = tested on: PC-3 prostate
[39] = tested on: RPMI-8226 leukemia
[40] = tested on: RXF 393 renal
[41] = tested on: SF-268 CNS
[42] = tested on: SF-295 CNS
[43] = tested on: SF-539 CNS
[44] = tested on: SK-MEL-2 melanoma
[45] = tested on: SK-MEL-28 melanoma
[46] = tested on: SK-MEL-5 melanoma
[47] = tested on: SK-OV-3 ovarian
[48] = tested on: SN12C renal
[49] = tested on: SNB-19 CNS
[50] = tested on: SNB-75 CNS
[51] = tested on: SR leukemia
[52] = tested on: SW-620 colon
[53] = tested on: T-47D breast
[54] = tested on: TK-10 renal
[55] = tested on: U251 CNS
[56] = tested on: UACC-257 melanoma
[57] = tested on: UACC-62 melanoma
[58] = tested on: UO-31 renal

`O=C(Nc1ccc(Cl)cc1F)c1cc(I)ccc1O` showed a GI50 [1] of 2980 nM, a TGI [1] of 9240 nM and a GI50 [2] of 269 nM. The TGI [2] was 846 nM, the GI50 [3] was 2880 nM and the TGI [3] was greater than 100000 nM. The GI50 [4] was 1810 nM, the TGI [4] was 10100 nM and the GI50 [5] was 735 nM. The TGI [5] was 2640 nM, the GI50 [6] was 1280 nM and the TGI [6] was 5730 nM. The GI50 [7] was 2780 nM, the TGI [7] was 9770 nM and the GI50 [8] was 4520 nM. For the same compound, the TGI [8] was 17500 nM, the GI50 [9] was 3100 nM and the TGI [9] was 47900 nM. It also gave a GI50 [10] of 1620 nM, a TGI [10] of 8800 nM and a GI50 [11] of 3100 nM. It also gave a TGI [11] of 11900 nM, a GI50 [12] of 1220 nM and a TGI [12] of 2870 nM. The GI50 [13] was 2410 nM, the TGI [13] was 10200 nM and the GI50 [14] was 1660 nM. For the same compound, the TGI [14] was 6870 nM, the GI50 [15] was 2350 nM and the TGI [15] was 8040 nM. The GI50 [16] was 171 nM, the TGI [16] was 679 nM and the GI50 [17] was 1140 nM. It also gave a TGI [17] of 7290 nM, a GI50 [18] of 3570 nM and a TGI [18] greater than 100000 nM. The GI50 [19] was 1510 nM, the TGI [19] was 50400 nM and the GI50 [20] was 1090 nM. The TGI [20] was greater than 100000 nM, the GI50 [21] was 2150 nM and the TGI [21] was 4980 nM. It also gave a GI50 [22] of 1420 nM, a TGI [22] of 6790 nM and a GI50 [23] of 711 nM. For the same compound, the TGI [23] was 5570 nM, the GI50 [24] was 608 nM and the TGI [24] was 3870 nM. For the same compound, the GI50 [25] was 2380 nM, the TGI [25] was 18500 nM and the GI50 [26] was 1670 nM. For the same compound, the TGI [26] was 7490 nM, the GI50 [27] was 2080 nM and the TGI [27] was 7900 nM. It also gave a GI50 [28] of 2410 nM, a TGI [28] of 6890 nM and a GI50 [29] of 1940 nM. It also gave a TGI [29] of 7140 nM, a GI50 [30] of 1780 nM and a TGI [30] of 6590 nM. The GI50 [31] was 1500 nM, the TGI [31] was 14200 nM and the GI50 [32] was 1140 nM. It also gave a TGI [32] of 10500 nM, a GI50 [33] of 2020 nM and a TGI [33] of 8680 nM. It also gave a GI50 [34] of 1660 nM, a TGI [34] of 16100 nM and a GI50 [35] of 2040 nM. The TGI [35] was 15500 nM, the GI50 [36] was 4210 nM and the TGI [36] was greater than 100000 nM. It also gave a GI50 [37] of 2020 nM, a TGI [37] of 9960 nM and a GI50 [38] of 2070 nM. It also gave a TGI [38] of 6360 nM, a GI50 [39] of 737 nM and a TGI [39] of 5010 nM. For the same compound, the GI50 [40] was 1570 nM, the TGI [40] was 5200 nM and the GI50 [41] was 1670 nM. The TGI [41] was 15100 nM, the GI50 [42] was 1890 nM and the TGI [42] was 3750 nM. It also gave a GI50 [43] of 1100 nM, a TGI [43] of 5780 nM and a GI50 [44] of 836 nM. The TGI [44] was 4250 nM, the GI50 [45] was 487 nM and the TGI [45] was 3380 nM. For the same compound, the GI50 [46] was 1120 nM, the TGI [46] was 2530 nM and the GI50 [47] was 132 nM. For the same compound, the TGI [47] was 1240 nM, the GI50 [48] was 1010 nM and the TGI [48] was 7620 nM. It also gave a GI50 [49] of 714 nM, a TGI [49] of 92000 nM and a GI50 [50] of 187 nM. The TGI [50] was 2820 nM, the GI50 [51] was 1500 nM and the TGI [51] was greater than 100000 nM. The GI50 [52] was 2440 nM, the TGI [52] was 13600 nM and the GI50 [53] was 1440 nM. For the same compound, the TGI [53] was 6300 nM, the GI50 [54] was 4210 nM and the TGI [54] was 16100 nM. For the same compound, the GI50 [55] was 1640 nM, the TGI [55] was 21200 nM and the GI50 [56] was 812 nM. For the same compound, the TGI [56] was 6640 nM, the GI50 [57] was 448 nM and the TGI [57] was 2190 nM. The GI50 [58] was 385 nM and the TGI [58] was 3180 nM.
